According to patent US12071407B1, “6-(4-hydroxyphenyl)-2-(2-ethoxyethoxy)-4-(4-methoxyphenyl)nicotinonitrile as an antimicrobial compound” (KING FAISAL UNIVERSITY, priority 2023, dated 2024):

Columns and labels:
[1] = test system: Escherichia coli; test: Antimicrobial screening by agar dilution; assay type: cell-based; details: after 10, 20, 40 and 60 minutes at all dilutions 1:100, 1:200, 1:400, 1:800
Experimental: (§1) The antibacterial properties of the synthesized compound 6-(4-hydroxyphenyl)-2-(2-ethoxyethoxy)-4-(4-methoxyphenyl)nicotinonitrile were studied by the method of agar dilution. Test solutions of each compound was prepared in concentration of 1% using dimethylformamide as a solvent then they are diluted in physiological solution to obtain the final experimental dilutions 1:100, 1:200, 1:400, 1:800. The effects of these substances are compared with furacillin in a controllable study. The testing microbes used were gram positive bacteria Staphylococcus aureus, gram negative bacteria Pseudomonas aeruginosa and Escherichia coli and Candida albicans fungus. The experiments used for this survey were meat-pentonlu agar (EPA) for cultivation of bacteria and Saburo environment for the fungus. Each experiment used 1 mL of test solution on each plate […]. Two drops of emulsified with microbes feel were added. All experimental samples were taken from the agar after 10, 20, 40, 60 minutes in the environment on the basis of Patrk planted. The bacteria were cultivated at a temperature of 37° C. for 1 day and the mushroom was kept in a thermostat for […] at a temperature of 28° C. Then results were checked.

[2] = test system: Candida albicans; test: Antimicrobial screening by agar dilution; assay type: cell-based; details: after 10, 20, 40 and 60 minutes at all dilutions 1:100, 1:200, 1:400, 1:800
Experimental: as §1

[3] = test system: Pseudomonas aeruginosa; test: Antimicrobial screening by agar dilution; assay type: cell-based; details: after 10, 20, 40 and 60 minutes at all dilutions 1:100, 1:200, 1:400, 1:800
Experimental: as §1

[4] = test system: Staphylococcus aureus; test: Antimicrobial screening by agar dilution; assay type: cell-based; details: after 10, 20, 40 and 60 minutes at all dilutions 1:100, 1:200, 1:400, 1:800
Experimental: as §1

melting point: 209 to 211 °C
Structure (SMILES): CCOCCOc1nc(-c2ccc(O)cc2)cc(-c2ccc(OC)cc2)c1C#N [6-(4-hydroxyphenyl)-2-(2-ethoxyethoxy)-4-(4-methoxyphenyl)nicotinonitrile]
inhibition activity (summary in words) [1]: highest inhibition activity
inhibition activity (summary in words) [2]: highest inhibition activity
inhibition activity (summary in words) [3]: highest inhibition activity
inhibition activity (summary in words) [4]: highest inhibition activity
